According to patent publication US8252793B2, “Bradykinin receptor agonists and uses thereof to treat ocular hypertension and glaucoma” (Alcon Research, Ltd., priority 2010, dated 2012):
Read-outs that look alike come from different tables or passages of the source.

Columns and labels:
[1] = target: T1, recombinant human bradykinin B2 receptor (Homo sapiens, UniProt P30411); experiment: [3H]-BK competition radioligand binding to human cloned B2 receptor (CHO cell membranes)
T1 construct: expressed in transfected cells; host or cells: Chinese hamster ovary (CHO) cells, membrane homogenates
T1 sequence (P30411 1-391): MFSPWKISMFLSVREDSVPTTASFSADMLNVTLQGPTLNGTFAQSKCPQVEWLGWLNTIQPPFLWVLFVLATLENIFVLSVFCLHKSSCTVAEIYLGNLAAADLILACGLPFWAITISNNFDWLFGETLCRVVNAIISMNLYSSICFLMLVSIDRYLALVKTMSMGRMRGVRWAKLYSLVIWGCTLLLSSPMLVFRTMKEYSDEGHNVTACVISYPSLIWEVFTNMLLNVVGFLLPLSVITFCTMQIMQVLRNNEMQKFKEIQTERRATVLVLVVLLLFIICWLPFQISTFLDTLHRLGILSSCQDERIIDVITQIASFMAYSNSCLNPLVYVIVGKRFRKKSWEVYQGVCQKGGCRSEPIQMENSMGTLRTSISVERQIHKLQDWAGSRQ
Procedure: Chinese hamster ovary (CHO) cell membrane homogenates (2.5 μg protein) expressing the recombinant human bradykinin B2 receptor were incubated for 60 min at 23° C. with 0.2 nM [^3H]-bradykinin (95.5 Ci/mmole, PerkinElmer) in the absence or presence of the test compound in a buffer containing 50 mM Tris/HCl (pH 7.4), 0.2 g/L 1-10-phenanthroline and 0.1% BSA. All reagent and test compound additions to the assay plates were made using Biomek 3000 robotic workstations (Beckman Instruments, Fullerton, Calif.). Nonspecific binding was determined in the presence of 1 μM unlabeled bradykinin. Following the incubation, the assay was terminated by rapid filtration under vacuum through glass fiber filters (GF/C, PerkinElmer) presoaked with 0.3% polyethyleneimine and rinsed several times with an ice-cold 50 mM Tris-HCl buffer using a 96-sample cell harvester (Tomtec). The filters were air-dried and the radioactivity counted in a beta-scintillation counter (Topcount, PerkinElmer) using a scintillation cocktail (Microscint 20, PerkinElmer) (Sharif and Whiting, Neurochem. Int. 18: 89-96, 1991). Competitive binding inhibition curves were generated using a 7-point concentration—response of test compound in duplicate. Bradykinin peptide was also tested as an internal control in the assay. The data were analyzed using nonlinear, iterative curve-fitting to obtain the potency and intrinsic activities of the test agents as previously described (Sharif et al. J. Pharmacol. Exp. Ther. 286: 1094-1102, 1998; Sharif et al. Invest Ophthalmol. Vis. Sci. 39:2562-2571, 1998; Kelly et al. J. Pharmacol. Exp. Ther. 304: 238-245, 2003). Determined IC50 values were converted to Ki values using the standard Cheng-Prusoff equation.

[2] = target: T2, BK receptors in human ciliary muscle cells (h-CM) (Homo sapiens, UniProt P30411); experiment: Functional assay measuring [Ca2+]i mobilization (FLIPR) in h-CM cells; format: cell-based; conditions: class symbols (in μM), read-out: CaM (EC50)
T2 construct: h-CM cells expressing BK receptors were seeded; endogenous in cells; host or cells: human ciliary muscle (h-CM) cells
T2 sequence (P30411 1-391): T1 sequence (P30411 1-391)
Procedure: On the day of the experiment, media was removed, cells were rinsed and 50 μL of serum-free media added. One vial of FLIPR Calcium Assay Kit dye was reconstituted in 50 mL of a FLIPR buffer consisting of Hank's Balanced Salt Solution (HBSS), 20 mM HEPES, and 2.5 mM probenecid, pH 7.4. Cells were loaded with the calcium-sensitive dye by addition of an equal volume (50 μL) to each well of the 96-well plate and incubated with dye for 1 h at 23° C. […] After this time, the test compound plate and cell plate were placed in a Fluorescence Imaging Plate Reader (FLIPR-Tetra®) instrument (Molecular Devices/MDSPharma, Sunnyvale, Calif.). At the beginning of an experimental run, a signal test was performed to check the basal fluorescence signal from the dye-loaded cells and the uniformity of the signal across the plate. […] An aliquot (25 μL) of the test compound was added to the existing 100 μL dye-loaded cells at a dispensing speed of 50 μL/sec. Intracellular calcium mobilization was measured by monitoring real-time changes in cellular fluorescence upon test compound addition. Fluorescence data were collected in real-time at 1.0 sec intervals for the first 60 seconds and at 6.0 second intervals for an additional 120 seconds. Baseline fluorescence readings were normalized across the plate and background-corrected from negative control wells. […] EC50 values were determined by 4-parameter nonlinear curve fitting of the concentration-response curve. Calibration of the instrument was performed using manufacturer's standard procedures.

[3] = system: primary human ciliary muscle cells (h-CM); experiment: Total prostaglandin (PG) release from primary h-CM cells (EIA); format: cell-based; conditions: 1 hour at 37° C., class symbols (in μM)
Procedure: BK agonist compounds of Formula 1 were evaluated for the ability to induce prostaglandin (PG) release from primary human ciliary muscle cells (h-CM). Briefly, h-CM cells were grown to confluence in FNC-coated 24-well culture plates and serum-starved (0.8% FBS) for 24 hours prior to the experiment. Cells were stimulated with a 9-pt concentration-response (0.1 nM-10 μM) of bradykinin or BK agonist for 1 hour at 37° C. with subsequent sample recovery and processing for total PG measurement. Total PG measurement was determined using a total Prostaglandin Screening EIA kit (cat#514012) purchased from Cayman Chemical (Ann Arbor, Mich.). The assay was conducted according to the package insert from the manufacturer.

[4] = 0.2 nM [3H]-bradykinin, CHO membranes, 60 min 23° C., mean ± SEM or single value, Ki from IC50 by Cheng-Prusoff, read-out: [3H]-BK Binding to Human Cloned B2 Receptor (Ki)
[5] = same assay as E1, given as class symbols (in μM), read-out: [3H]-BK Binding to Human Cloned B2 Receptor (Ki, nM), class symbols

Row | Compound | Ki [1, 4] [µM] | EC50 [2] [µM] | also measured
1 | 3-(4-acetylpiperazin-1-yl)-N-(2-((2,4-dichloro-3-(((2-methoxy-1-(pyridin-2-ylmethyl)-1H-benzo[d]imidazol-4-yl)oxy)methyl)phenyl)(methyl)amino)-2-oxoethyl)propanamide [Compound 16] | 0.985 ± 0.473 | 0.1 to 1 | Ki [1, 5]: 0.1 to 1 µM
2 | 4-(3-((2-((2,4-dichloro-3-(((2-methyl-4-(pyridin-2-ylmethoxy)quinolin-8-yl)oxy)methyl)phenyl)(methyl)amino)-2-oxoethyl)amino)-3-oxopropyl)-N-methylbenzamide [Compound 31] |  | < 0.1 | EC50 [3]: 0.1 to 1 µM
3 | 4-((2-((2-((3-(((2-methoxy-1-(pyridin-2-ylmethyl)-1H-benzo[d]imidazol-4-yl)oxy)methyl)-2,4-dimethylphenyl)(methyl)amino)-2-oxoethyl)amino)-2-oxoethyl)amino)-N-methylpiperidine-1-carboxamide [Compound 21] | 0.881 ± 0.263 | 0.1 to 1 | Ki [1, 5]: 0.1 to 1 µM
4 | 5-(3-((2-((2,4-dichloro-3-(((2-methyl-4-((pyridin-2-ylmethyl)amino)quinolin-8-yl)oxy)methyl)phenyl)(methyl)amino)-2-oxoethyl)amino)-3-oxopropyl)-N-methylpicolinamide [Compound 49] |  | 0.1 to 1 | EC50 [3]: 0.1 to 1 µM
5 | COc1nc2c(OCc3c(Cl)ccc(N(C)C(=O)CNC(=O)CCc4ccc(NS(C)(=O)=O)nc4)c3Cl)cccc2n1Cc1ccccn1 [Compound 5, N-(2-((2,4-dichloro-3-(((2-methoxy-1-(pyridin-2-ylmethyl)-1H-benzo[d]imidazol-4-yl)oxy)methyl)phenyl)(methyl)amino)-2-oxoethyl)-3-(6-(methylsulfonamido)pyridin-3-yl)propanamide] | 0.071 ± 0.03 | 0.1 to 1 | 
6 | COC(=O)Nc1ccc(CCC(=O)NCC(=O)N(C)c2ccc(C)c(COc3cccc4c3nc(OC)n4Cc3ccccn3)c2C)cn1 [Compound 6] | 0.01 ± 0.002 | < 0.1 | Ki [1, 5]: < 0.1 µM
7 | COc1nc2c(OCc3c(Cl)ccc(N(C)C(=O)CNC(=O)CN4CCOCC4)c3Cl)cccc2n1Cc1ccccn1 [Compound 14, N-(2,4-dichloro-3-(((2-methoxy-1-(pyridin-2-ylmethyl)-1H-benzo[d]imidazol-4-yl)oxy)methyl)phenyl)-N-methyl-2-(2-morpholinoacetamido)acetamide] | 0.197 | 0.1 to 1 | 
8 | COc1nc2c(OCc3c(Cl)ccc(N(C)C(=O)CNC(=O)CN4CCC(NC(C)=O)CC4)c3Cl)cccc2n1Cc1ccccn1 [Compound 15, 2-(2-(4-acetamidopiperidin-1-yl)acetamido)-N-(2,4-dichloro-3-(((2-methoxy-1-(pyridin-2-ylmethyl)-1H-benzo[d]imidazol-4-yl)oxy)methyl)phenyl)-N-methylacetamide] | 0.467 | 0.1 to 1 | 
9 | COc1nc2c(OCc3c(Cl)ccc(N(C)C(=O)CNC(=O)CCN4CCN(C(=O)N(C)C)CC4)c3Cl)cccc2n1Cc1ccccn1 [Compound 17] | 0.274 ± 0.069 | 0.1 to 1 | 
10 | COC(=O)N1CCN(CCC(=O)NCC(=O)N(C)c2ccc(Cl)c(COc3cccc4c3nc(OC)n4Cc3ccccn3)c2Cl)CC1 [Compound 18] | 0.239 ± 0.15 | 0.1 to 1 | 
11 | CCc1nc2c(OCc3c(Cl)ccc(N(C)C(=O)CNC(=O)CNC4CCN(C(=O)NC)CC4)c3Cl)cccn2c1C(O)c1ccccn1 (stereo not drawn) [Compound 23] | 1.73 ± 0.428 | > 1 | 
12 | CCc1nc2c(OCc3c(Cl)ccc(N(C)C(=O)CNC(=O)CCN4CCN(C(=O)NC)CC4)c3Cl)cccn2c1C(O)c1ccccn1 (stereo not drawn) [Compound 26] | 2.14 ± 0.223 | 0.1 to 1 | 
13 | CC(=O)Nc1ccc(CC(=O)NCC(=O)N(C)c2ccc(Cl)c(COc3cccc4c(OCc5ccccn5)cc(C)nc34)c2Cl)cc1 [Compound 50] | 0.015 | 0.1 to 1 | 
14 | COc1nc2c(OCc3c(C)ccc(N(C)C(=O)CNC(=O)CN4CCC(NC(C)=O)CC4)c3C)cccc2n1Cc1ccccn1 [Compound 51] | 0.701 | 0.1 to 1 | 
15 | CNC(=O)C1CCN(CC(=O)NCC(=O)N(C)c2ccc(C)c(COc3cccc4c3nc(OC)n4Cc3ccccn3)c2C)CC1 [Compound 52] | 0.0157 | 0.1 to 1 | 
16 | CNC(=O)CN1CCN(CC(=O)NCC(=O)N(C)c2ccc(Cl)c(COc3cccc4c3nc(OC)n4Cc3ccccn3)c2Cl)CC1 [Compound 53] | 0.34 | 0.1 to 1 | 
17 | COc1nc2c(OCc3c(Cl)ccc(N(C)C(=O)CNC(=O)CCN4CCOCC4)c3Cl)cccc2n1Cc1ccccn1 [Compound 54] | 0.455 | 0.1 to 1 | 
18 | COc1nc2c(OCc3c(Cl)ccc(N(C)C(=O)CNC(=O)CCCN4CCN(C(C)=O)CC4)c3Cl)cccc2n1Cc1ccccn1 [Compound 55] | 0.984 | 0.1 to 1 | 
19 | COc1nc2c(OCc3c(Cl)ccc(N(C)C(=O)CNC(=O)CCN4CCNCC4)c3Cl)cccc2n1Cc1ccccn1 [Compound 58] | 3.15 | > 1 | 
20 | CCc1nc2c(OCc3c(Cl)ccc(N(C)C(=O)CNC(=O)CCN4CCN(C(=O)NC)CC4)c3Cl)cccn2c1C(O)c1ccccn1 (stereo not drawn) [Compound 59] | 2.14 | 0.1 to 1 | 
21 | CCc1nc2c(OCc3c(C)ccc(N(C)C(=O)CNC(=O)CCN4CCN(C(=O)NC)CC4)c3C)cccc2n1Cc1ccccn1 [Compound 60] |  | 0.1 to 1 | 
22 | N=C(N)NCCC[C@H](NC(=O)[C@H](Cc1ccccc1)NC(=O)[C@@H]1CCCN1C(=O)[C@H](CO)NC(=O)[C@H](Cc1ccccc1)NC(=O)CNC(=O)[C@@H]1C[C@@H](O)CN1C(=O)[C@@H]1CCCN1C(=O)[C@@H](N)CCCNC(=N)N)C(=O)O [Hyp^3-BK, reference compound] |  |  | Ki [1]: 0.0019 ± 0.0011 µM; Ki ([1]; [3H]-BK Binding to Human Cloned B2 Receptor (Ki, nM), class symbols, same assay as E1, given as class symbols (in μM)): < 0.1 µM
23 | NCCCC[C@H](N)C(=O)N[C@@H](CCCN=C(N)N)C(=O)N1CCC[C@H]1C(=O)N1CCC[C@H]1C(=O)NCC(=O)N[C@@H](Cc1ccccc1)C(=O)N[C@@H](CO)C(=O)N1CCC[C@H]1C(=O)N[C@@H](Cc1ccccc1)C(=O)N[C@@H](CCCN=C(N)N)C(=O)O [Lys-BK, reference compound] |  |  | Ki [1, 5]: < 0.1 µM
24 | CSCC[C@H](N)C(=O)N[C@@H](CCCCN)C(=O)N[C@@H](CCCNC(=N)N)C(=O)N1CCC[C@H]1C(=O)N1CCC[C@H]1C(=O)NCC(=O)N[C@@H](Cc1ccccc1)C(=O)N[C@@H](CO)C(=O)N1CCC[C@H]1C(=O)N[C@@H](Cc1ccccc1)C(=O)N[C@@H](CCCNC(=N)N)C(=O)O [Met-Lys-BK, reference compound] |  |  | Ki [1, 5]: < 0.1 µM
